Data reported in patent US20250171457A1, “NITROGEN-CONTAINING HETEROCYCLIC COMPOUND HAVING NRF2 ACTIVATION EFFECT” (CHUGAI SEIYAKU KABUSHIKI KAISHA, priority 2022, published 2025).

Test system: Nrf2 transcriptional activity (pARE-Luc reporter) in HepG2 cells
Experiment: In vitro Nrf2 transcriptional activity measurement by ARE-dependent reporter assay in HepG2 cell
Type: cell-based, human
Conditions: Homo sapiens; HepG2 cells transfected with pARE-Luc, 4 hours at 37° C.; luciferase activity of Example 1-54 or Example 17-23 at 3.75 μM defined as 100%
Procedure, shortened: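 HepG2 cells transfected with pGL4.37 (pARE-Luc), replated onto compound and incubated 4 h at 37° C; luciferase read by Bright-Glo luminescence. Response normalized to 100% set by a reference compound at 3.75 μM; EC50 from dose-response curve.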

Structure (SMILES) | EC50
COCCN1CCN(c2cc(Cl)c(C(=O)N3COc4c(cccc4-c4cc(N5C6CCC5COC6)c(C(=O)O)cc4F)C3)c(Cl)c2)CC1 [Compound 14-9, 4-[3-[2,6-Dichloro-4-[4-(2-methoxyethyl)piperazin-1-yl]benzoyl]-2,4-dihydro-1,3-benzoxazin-8-yl]-5-fluoro-2-(3-oxa-8-azabicyclo[3.2.1]octan-8-yl)benzoic acid] | 3.7 nM
CC(C)(O)Cn1cc(-c2cc(Cl)c(C(=O)N3COc4c(cccc4-c4ccc(C(=O)O)c(N5CCOCC5)c4)C3)c(Cl)c2)cn1 [Compound 15-1, 4-[3-[2,6-Dichloro-4-[1-(2-hydroxy-2-methylpropyl)pyrazol-4-yl]benzoyl]-2,4-dihydro-1,3-benzoxazin-8-yl]-2-morpholin-4-ylbenzoic acid] | 4.9 nM
C[C@H](O)Cn1cc(-c2cc(Cl)c(C(=O)N3COc4c(cccc4-c4ccc(C(=O)O)c(N5CCOCC5)c4)C3)c(Cl)c2)cn1 [Compound 15-2, 4-[3-[2,6-Dichloro-4-[1-[(2S)-2-hydroxypropyl]pyrazol-4-yl]benzoyl]-2,4-dihydro-1,3-benzoxazin-8-yl]-2-morpholin-4-ylbenzoic acid] | 21 nM
COC[C@H](O)Cn1cc(-c2cc(Cl)c(C(=O)N3COc4c(cccc4-c4cc(N5CCOCC5)c(C(=O)O)cc4F)C3)c(Cl)c2)cn1 [Compound 15-3, 4-[3-[2,6-Dichloro-4-[1-[(2R)-2-hydroxy-3-methoxypropyl]pyrazol-4-yl]benzoyl]-2,4-dihydro-1,3-benzoxazin-8-yl]-5-fluoro-2-morpholin-4-ylbenzoic acid] | 1.5 nM
COC[C@H](O)Cn1cc(-c2cc(Cl)c(C(=O)N3COc4c(cccc4-c4ccc(C(=O)O)c(N5CCOCC5)c4)C3)c(Cl)c2)cn1 [Compound 15-4, 4-[3-[2,6-Dichloro-4-[1-[(2R)-2-hydroxy-3-methoxypropyl]pyrazol-4-yl]benzoyl]-2,4-dihydro-1,3-benzoxazin-8-yl]-2-morpholin-4-ylbenzoic acid] | 6.8 nM
CC1(O)CC2(CN(c3cc(Cl)c(C(=O)N4COc5c(cccc5-c5cc(N6C7CCC6COC7)c(C(=O)O)cc5F)C4)c(Cl)c3)C2)C1 [Compound 16-1, 4-[3-[2,6-Dichloro-4-(6-hydroxy-6-methyl-2-azaspiro[3.3]heptan-2-yl)benzoyl]-2,4-dihydro-1,3-benzoxazin-8-yl]-5-fluoro-2-(3-oxa-8-azabicyclo[3.2.1]octan-8-yl)benzoic acid] | 13 nM
COC1(C)CC2(CN(c3cc(Cl)c(C(=O)N4COc5c(cccc5-c5cc(N6C7CCC6COC7)c(C(=O)O)cc5F)C4)c(Cl)c3)C2)C1 [Compound 16-2, 4-[3-[2,6-Dichloro-4-(6-methoxy-6-methyl-2-azaspiro[3.3]heptan-2-yl)benzoyl]-2,4-dihydro-1,3-benzoxazin-8-yl]-5-fluoro-2-(3-oxa-8-azabicyclo[3.2.1]octan-8-yl)benzoic acid] | 1.5 nM
C[C@@H]1CN(C)CCN1c1cc(Cl)c(C(=O)N2COc3c(cccc3-c3cc(N4C5CCC4COC5)c(-c4n[nH]c(=O)o4)cc3F)C2)c(Cl)c1 [Compound 16-3, 5-[4-[3-[2,6-Dichloro-4-[(2R)-2,4-dimethylpiperazin-1-yl]benzoyl]-2,4-dihydro-1,3-benzoxazin-8-yl]-5-fluoro-2-(3-oxa-8-azabicyclo[3.2.1]octan-8-yl)phenyl]-3H-1,3,4-oxadiazol-2-one] | 17 nM
C[C@@H]1CN(C)CCN1c1cc(Cl)c(C(=O)N2COc3c(cccc3-c3cc(N4C5CCC4COC5)c(-c4nnn[nH]4)cc3F)C2)c(Cl)c1 [Compound 16-4, [2,6-Dichloro-4-[(2R)-2,4-dimethylpiperazin-1-yl]phenyl]-[8-[2-fluoro-5-(3-oxa-8-azabicyclo[3.2.1]octan-8-yl)-4-(1H-tetrazol-5-yl)phenyl]-2,4-dihydro-1,3-benzoxazin-3-yl]methanone] | 110 nM
Cn1cc(-c2cc(Cl)c(C(=O)N3COc4c(cccc4-c4ccc(-c5nnn[nH]5)c(N5CCOCC5)c4)C3)c(Cl)c2)cn1 [Compound 16-5, [2,6-Dichloro-4-(1-methylpyrazol-4-yl)phenyl]-[8-[3-morpholin-4-yl-4-(1H-tetrazol-5-yl)phenyl]-2,4-dihydro-1,3-benzoxazin-3-yl]methanone] | 200 nM
COC1CN(c2cc(Cl)c(C(=O)N3COc4c(cccc4-c4cc(N5C6CCC5COC6)c(C(=O)NS(C)(=O)=O)cc4F)C3)c(Cl)c2)C1 [Compound 16-6, 4-[3-[2,6-Dichloro-4-(3-methoxyazetidin-1-yl)benzoyl]-2,4-dihydro-1,3-benzoxazin-8-yl]-5-fluoro-N-methylsulfonyl-2-(3-oxa-8-azabicyclo[3.2.1]octan-8-yl)benzamide] | 170 nM
O=C(O)c1cc(F)c(-c2cccc3c2OCN(C(=O)c2c(Cl)cc(N4CC5(C4)CC(F)(F)C5)cc2Cl)C3)cc1N1C2CCC1COC2 [Compound 16-7, 4-[3-[2,6-Dichloro-4-(6,6-difluoro-2-azaspiro[3.3]heptan-2-yl)benzoyl]-2,4-dihydro-1,3-benzoxazin-8-yl]-5-fluoro-2-(3-oxa-8-azabicyclo[3.2.1]octan-8-yl)benzoic acid] | 1.4 nM
O=C(O)c1cc(F)c(-c2cccc3c2OCN(C(=O)c2c(Cl)cc(N4CC5(CC(F)C5)C4)cc2Cl)C3)cc1N1C2CCC1COC2 [Compound 16-8, 4-[3-[2,6-Dichloro-4-(6-fluoro-2-azaspiro[3.3]heptan-2-yl)benzoyl]-2,4-dihydro-1,3-benzoxazin-8-yl]-5-fluoro-2-(3-oxa-8-azabicyclo[3.2.1]octan-8-yl)benzoic acid] | 3.9 nM
Cn1nnc(-c2cc(Cl)c(C(=O)N3COc4c(cccc4-c4cc(N5C6CCC5COC6)c(C(=O)O)cc4F)C3)c(Cl)c2)n1 [Compound 16-9, 4-[3-[2,6-Dichloro-4-(2-methyltetrazol-5-yl)benzoyl]-2,4-dihydro-1,3-benzoxazin-8-yl]-5-fluoro-2-(3-oxa-8-azabicyclo[3.2.1]octan-8-yl)benzoic acid] | 12 nM
CC(C)Sc1cc(Cl)c(C(=O)N2COc3c(cccc3-c3ccc(C(=O)O)c(N4CCOCC4)c3)C2)c(Cl)c1 [Compound 16-10, 4-[3-(2,6-Dichloro-4-propan-2-ylsulfanylbenzoyl)-2,4-dihydro-1,3-benzoxazin-8-yl]-2-morpholin-4-ylbenzoic acid] | 9.3 nM
COCCN1CCC(c2cc(Cl)c(C(=O)N3COc4c(cccc4-c4cc(N5CCOCC5)c(C(=O)O)cc4F)C3)c(Cl)c2)CC1 [Compound 16-11, 4-[3-[2,6-Dichloro-4-[1-(2-methoxyethyl)piperidin-4-yl]benzoyl]-2,4-dihydro-1,3-benzoxazin-8-yl]-5-fluoro-2-morpholin-4-ylbenzoic acid] | 7.5 nM
O=C(O)c1cc(F)c(-c2cccc3c2OCN(C(=O)c2c(Cl)cc(C4COC4)cc2Cl)C3)cc1N1CCOCC1 [Compound 16-12, 4-[3-[2,6-Dichloro-4-(oxetan-3-yl)benzoyl]-2,4-dihydro-1,3-benzoxazin-8-yl]-5-fluoro-2-morpholin-4-ylbenzoic acid] | 9.8 nM
C[C@@H]1CN(C)CCN1c1cc(Cl)c(C(=O)N2COc3c(cccc3-c3cc(N(C)[C@@H]4CCOC4)c(C(=O)O)cc3F)C2)c(Cl)c1 [Compound 16-13, 4-[3-[2,6-Dichloro-4-[(2R)-2,4-dimethylpiperazin-1-yl]benzoyl]-2,4-dihydro-1,3-benzoxazin-8-yl]-5-fluoro-2-[methyl-[(3R)-oxolan-3-yl]amino]benzoic acid] | 4.4 nM
CN(c1cc(-c2cccc3c2OCN(C(=O)c2c(Cl)cc(-c4cnn(C)c4)cc2Cl)C3)c(F)cc1C(=O)O)C1(C)COC1 [Compound 16-14, 4-[3-[2,6-Dichloro-4-(1-methylpyrazol-4-yl)benzoyl]-2,4-dihydro-1,3-benzoxazin-8-yl]-5-fluoro-2-[methyl-(3-methyloxetan-3-yl)amino]benzoic acid] | 6.8 nM
O=C(O)c1cc(F)c(-c2cccc3c2OCN(C(=O)c2c(Cl)cc(N4CC5(COCCO5)C4)cc2Cl)C3)cc1N1C2CCC1COC2 [Compound 16-15, 4-[3-[2,6-Dichloro-4-(5,8-dioxa-2-azaspiro[3.5]nonan-2-yl)benzoyl]-2,4-dihydro-1,3-benzoxazin-8-yl]-5-fluoro-2-(3-oxa-8-azabicyclo[3.2.1]octan-8-yl)benzoic acid] | 3 nM
N#CC1(F)CN(c2cc(Cl)c(C(=O)N3COc4c(cccc4-c4cc(N5C6CCC5COC6)c(C(=O)O)cc4F)C3)c(Cl)c2)C1 [Compound 16-16, 4-[3-[2,6-Dichloro-4-(3-cyano-3-fluoroazetidin-1-yl)benzoyl]-2,4-dihydro-1,3-benzoxazin-8-yl]-5-fluoro-2-(3-oxa-8-azabicyclo[3.2.1]octan-8-yl)benzoic acid] | 13 nM
COCC(F)(F)CN1CC2(C1)CN(c1cc(Cl)c(C(=O)N3COc4c(cccc4-c4cc(N5C6CCC5COC6)c(C(=O)O)cc4F)C3)c(Cl)c1)C2 [Compound 16-17, 4-[3-[2,6-Dichloro-4-[6-(2,2-difluoro-3-methoxypropyl)-2,6-diazaspiro[3.3]heptan-2-yl]benzoyl]-2,4-dihydro-1,3-benzoxazin-8-yl]-5-fluoro-2-(3-oxa-8-azabicyclo[3.2.1]octan-8-yl)benzoic acid] | 2.7 nM
CC[C@@H](c1cccc2c1C(=O)NN(C(=O)c1c(Cl)cc(-c3cnn(C)c3)cc1Cl)C2)[C@H](C)C(=O)O [Compound 17-1, (2S,3R)-3-[2-[2,6-Dichloro-4-(1-methylpyrazol-4-yl)benzoyl]-4-oxo-1,3-dihydrophthalazin-5-yl]-2-methylpentanoic acid] | 2.2 nM
CC[C@@H](c1cccc2c1CON(C(=O)c1c(Cl)cc(-c3cnn(C)c3)cc1Cl)C2)[C@H](C)C(=O)O [Compound 17-2, (2S,3R)-3-[3-[2,6-Dichloro-4-(1-methylpyrazol-4-yl)benzoyl]-1,4-dihydro-2,3-benzoxazin-8-yl]-2-methylpentanoic acid] | 7.7 nM
